# Experimental data reported in patent publication US8071625B2, “Certain chemical entities, compositions, and methods” (Cytokinetics, Inc., priority 2006, dated 2011).
# Target: T1, crosslinked smooth muscle actomyosin (chicken gizzard smooth muscle myosin subfragment-1 crosslinked to cardiac or skeletal actin) (Gallus gallus, UniProt P10587)
# T1 construct: chicken gizzard smooth muscle myosin subfragment-1; from tissue; host or cells: chicken gizzard
# Test: Lead optimization pyruvate kinase/horseradish peroxidase/pyruvate oxidase-coupled ATPase assay (compound dose response)
# Assay type: biochemical
# Conditions: read-out: IC50 Arithmetic Mean
# Description: Screening assays were performed using a pyruvate kinase and lactate dehydrogenase-coupled ATPase assay containing the following reagents: Potassium PIPES (50 mM), MgCl2 (3 mM), KCl (100 mM), ATP (0.15 mM), DTT (1 mM), BSA (0.1 mg/ml), NADH (0.5 mM), PEP (1.5 mM), pyruvate kinase (4 U/ml), lactate dehydrogenase (8 U/ml), and antifoam (50 ppm) (concentrations expressed are final assay concentrations). The pH was adjusted to 6.80 at 22° C. by addition of potassium hydroxide. Lead optimization assays were performed with a more sensitive pyruvate kinase/horseradish peroxidase/pyruvate oxidase-coupled ATPase assay containing the following reagents: Potassium PIPES (12 mM), MgCl2 (2 mM), KCl (100 mM), ATP (0.15 mM), BSA (0.05 mg/ml), potassium phosphate (2 mM), amplex red (0.1 mM), PEP (0.1 mM), pyruvate kinase (4 U/ml), horseradish peroxidase (0.5 U/ml), pyruvate oxidase (0.5 U/ml), and antifoam (50 ppm) (concentrations expressed are final assay concentrations). The pH was adjusted to 7.00 at 22° C. by addition of potassium hydroxide.
# The protein components specific to this assay are chicken gizzard smooth muscle myosin subfragment-1 that has been chemically crosslinked to either cardiac or skeletal actin using an excess of 1-Ethyl-3-[3-dimethylaminopropyl]carbodiimide hydrochloride and N-hydroxysuccinimide. The exact concentration of the crosslinked smooth muscle myosin in the assay is determined empirically, by titration to achieve a desired rate of ATP hydrolysis. The concentration varies between protein preparations due to variations in the fraction of active molecules in each preparation.
# Compound dose response assays are performed by first preparing a dilution series of test compound, each with an assay mixture containing potassium PIPES, MgCl2, KCl, ATP, BSA, potassium phosphate, amplex red, PEP, crosslinked smooth muscle actomyosin (subfragment-1), antifoam, and water. The assay is started by adding an equal volume of solution containing potassium Pipes, MgCl2, KCl, BSA, potassium phosphate, pyruvate kinase, horseradish peroxidase, pyruvate oxidase, antifoam, and water. ATP hydrolysis is monitored by measuring the fluorescence of amplex red (excitation at 480 nm, emission at 615 nm). The resulting dose response curve is fit by the 4 parameter equation y=Bottom+((Top-Bottom)/(1+((IC50/X)^Hill))). The IC50 is defined as the concentration at which ATPase activity is midway between the top and bottom of the dose response curve.
row,SMILES,IC50 [µM]
1,CCc1ccc(NC(=O)OCC2(CC(=O)NCc3ccccc3Cl)CCN(C(=O)CN)CC2)cc1 [2-(1-(2-aminoacetyl)-4-{[N-(4-ethylphenyl)carbamoyloxy]methyl}(4-piperidyl))-N-[(2-chlorophenyl)methyl]acetamide],3.74
2,CCc1ccc(NC(=O)OCC(C)(NC(=O)CN)C(=O)NCc2ccccc2Cl)cc1 (stereo not drawn) [2-(2-aminoacetylamino)-N-[(2-chlorophenyl)methyl]-3-[N-(4-ethylphenyl)carbamoyloxy]-2-methylpropanamide],3.99
3,CCc1ccc(NC(=O)OCCC(NC(=O)CN)C(=O)NCc2ccccc2Cl)cc1 (stereo not drawn) [2-(2-aminoacetylamino)-N-[(2-chlorophenyl)methyl]-4-[N-(4-ethylphenyl)carbamoyloxy]butanamide],4.37
4,CCc1ccc(NC(=O)OCC(C)(NC(=O)[C@@H](N)CO)C(=O)NCc2ccccc2Cl)cc1 (stereo partly drawn) [2-((2S)-2-amino-3-hydroxypropanoylamino)-N-[(2-chlorophenyl)methyl]-3-[N-(4-ethylphenyl)carbamoyloxy]-2-methylpropanamide],11.2
5,CCc1ccc(NC(=O)OC[C@H](C)N(CC(=O)O)C(=O)NCc2ccccc2Cl)cc1 [2-(N-{(1S)-2-[N-(4-ethylphenyl)carbamoyloxy]-isopropyl}{[(2-chlorophenyl)methyl]amino}carbonylamino)acetic acid],1.67
6,CCc1ccc(NC(=O)OCC(C)(NC(C)=O)C(=O)NCc2ccccc2Cl)cc1 (stereo not drawn) [2-(acetylamino)-N-[(2-chlorophenyl)methyl]-3-[N-(4-ethylphenyl)carbamoyloxy]-2-methylpropanamide],3.14
7,CCc1ccc(NC(=O)OCC(NC(C)=O)C(=O)NCc2ccccc2Cl)cc1 (stereo not drawn) [2-(acetylamino)-N-[(2-chlorophenyl)methyl]-3-[N-(4-ethylphenyl)carbamoyloxy]propanamide],13.7
8,CCc1ccc(NC(=O)OCCN(CCCNC(=O)CNC(=O)OC(C)(C)C)C(=O)NCc2ccccc2Cl)cc1 [2-[(tert-butoxy)carbonylamino]-N-[3-({[(2-chlorophenyl)methyl]amino}-N-{2-[N-(4-ethylphenyl)carbamoyloxy]ethyl}carbonylamino)propyl]acetamide],4.09
9,CCc1ccc(NC(=O)OCCN(CCN(C)C(=O)CN)C(=O)NCc2ccccc2Cl)cc1 [2-amino-N-[2-({[(2-chlorophenyl)methyl]amino}-N-{2-[N-(4-ethylphenyl)carbamoyloxy]ethyl}carbonylamino)ethyl]-N-methylacetamide],5.86
10,CCc1ccc(NC(=O)OCCN(CCNC(=O)CN)C(=O)NCc2ccccc2Cl)cc1 [2-amino-N-[2-({[(2-chlorophenyl)methyl]amino}-N-{2-[N-(4-ethylphenyl)carbamoyloxy]ethyl}carbonylamino)ethyl]acetamide],0.896
11,CCc1ccc(NC(=O)OCCN(CCCNC(=O)CN)C(=O)NCc2ccccc2Cl)cc1 [2-amino-N-[3-({[(2-chlorophenyl)methyl]amino}-N-{2-[N-(4-ethylphenyl)carbamoyloxy]ethyl}carbonylamino)propyl]acetamide],0.188
12,CCc1ccc(NC(=O)OCCN(CCCCNC(=O)CN)C(=O)NCc2ccccc2Cl)cc1 [2-amino-N-[4-({[(2-chlorophenyl)methyl]amino}-N-{2-[N-(4-ethylphenyl)carbamoyloxy]ethyl}carbonylamino)butyl]acetamide],0.223
13,CCc1ccc(NC(=O)OCCC(N)C(=O)NCc2ccccc2Cl)cc1 (stereo not drawn) [2-amino-N-[(2-chlorophenyl)methyl]-4-[N-(4-ethylphenyl)carbamoyloxy]butanamide],6.81
14,CN(CCN(CCOC(=O)Nc1ccc(C(F)(F)F)cc1)C(=O)NCc1ccccc1Cl)C(=O)CN [2-amino-N-{2-[{[(2-chlorophenyl)methyl]amino}-N-(2-{N-[4-(trifluoromethyl)phenyl]carbamoyloxy}ethyl)carbonylamino]ethyl}-N-methylacetamide],15
15,CCc1ccc(NC(=O)OCC2(C(=O)NCc3ccccc3Cl)CCN(C(=O)OCCN)CC2)cc1 [2-aminoethyl 4-{N-[(2-chlorophenyl)methyl]carbamoyl}-4-{[N-(4-ethylphenyl)carbamoyloxy]methyl}piperidinecarboxylate],0.336
16,CCc1ccc(NC(=O)OCC(C)(NC(=O)CNC(=O)OC(C)(C)C)C(=O)NCc2ccccc2Cl)cc1 (stereo not drawn) [2-{2-[(tert-butoxy)carbonylamino]acetylamino}-N-[(2-chlorophenyl)methyl]-3-[N-(4-ethylphenyl)carbamoyloxy]-2-methylpropanamide],19.4
17,CCc1ccc(NC(=O)CCC2(C(=O)NCc3ccccc3C)CCN(C(=O)CN)CC2)cc1 [3-(1-(2-aminoacetyl)-4-{N-[(2-methylphenyl)methyl]carbamoyl}(4-piperidyl))-N-(4-ethylphenyl)propanamide],15.3
18,CCc1ccc(NC(=O)OCCN(C)C(=O)CCc2ccccc2Cl)cc1 [3-(2-chlorophenyl)-N-{2-[N-(4-ethylphenyl)carbamoyloxy]ethyl}-N-methylpropanamide],0.875
19,CCc1ccc(NC(=O)OCC2(C(=O)NCc3ccccc3Cl)CCN(C(=O)C(N)CC(=O)O)CC2)cc1 (stereo not drawn) [3-amino-4-(4-{N-[(2-chlorophenyl)methyl]carbamoyl}-4-{[N-(4-ethylphenyl)carbamoyloxy]methyl}piperidyl)-4-oxobutanoic acid],1.53
20,CCc1ccc(NC(=O)OCC(C)(CCNC(=O)CN)C(=O)NCc2ccccc2Cl)cc1 (stereo not drawn) [4-(2-aminoacetylamino)-N-[(2-chlorophenyl)methyl]-2-{[N-(4-ethylphenyl)carbamoyloxy]methyl}-2-methylbutanamide],0.283
21,CCc1ccc(NC(=O)OCC(C)(CCNC(C)=O)C(=O)NCc2ccccc2Cl)cc1 (stereo not drawn) [4-(acetylamino)-N-[(2-chlorophenyl)methyl]-2-{[N-(4-ethylphenyl)carbamoyloxy]methyl}-2-methylbutanamide],0.742
22,CCc1ccc(NC(=O)OCC(C)(CCN)C(=O)NCc2ccccc2Cl)cc1 (stereo not drawn) [4-amino-N-[(2-chlorophenyl)methyl]-2-{[N-(4-ethylphenyl)carbamoyloxy]methyl}-2-methylbutanamide],1.74
23,CCc1ccc(NC(=O)OCC(C)(CCNC(=O)CNC(=O)OC(C)(C)C)C(=O)NCc2ccccc2Cl)cc1 (stereo not drawn) [4-{2-[(tert-butoxy)carbonylamino]acetylamino}-N-[(2-chlorophenyl)methyl]-2-{[N-(4-ethylphenyl)carbamoyloxy]methyl}-2-methylbutanamide],1.3
24,"NC(=O)c1ccc(NC(=O)OCC2(C(=O)NCc3ccccc3Cl)CCOCC2)cc1 [4-{[(4-{N-[(2-chlorophenyl)methyl]carbamoyl}-2H-3,4,5,6-tetrahydropyran-4-yl)methoxy]carbonylamino}benzamide]",16.1
25,"CCc1ccc(NC(=O)OCC2(C(=O)NCc3ccccc3Cl)CCN(C(=O)C(N)CN)CC2)cc1 (stereo not drawn) [(1-(2,3-diaminopropanoyl)-4-{[N-(4-ethylphenyl)carbamoyloxy]methyl}(4-piperidyl))-N-[(2-chlorophenyl)methyl]carboxamide]",1.02
26,"CCc1ccc(NC(=O)OCC2(C(=O)NCc3ccccc3Cl)CCN(C(=O)C(O)CO)CC2)cc1 (stereo not drawn) [(1-(2,3-dihydroxypropanoyl)-4-{[N-(4-ethylphenyl)carbamoyloxy]methyl}(4-piperidyl))-N-[(2-chlorophenyl)methyl]carboxamide]",0.123
27,"CCc1ccc(NC(=O)OCC2(C(=O)NCc3ccccc3Cl)CCN(C(=O)C(N)CCN)CC2)cc1 (stereo not drawn) [(1-(2,4-diaminobutanoyl)-4-{[N-(4-ethylphenyl)carbamoyloxy]methyl}(4-piperidyl))-N-[(2-chlorophenyl)methyl]carboxamide]",0.585
28,"CCc1ccc(NC(=O)OCC2(C(=O)NCc3ccccc3Cl)CCN(C(=O)C(N)CCCN)CC2)cc1 (stereo not drawn) [(1-(2,5-diaminopentanoyl)-4-{[N-(4-ethylphenyl)carbamoyloxy]methyl}(4-piperidyl))-N-[(2-chlorophenyl)methyl]carboxamide]",1.49
29,CCc1ccc(NC(=O)OCC2(C(=O)NCc3ccccc3Cl)CCN(C(=O)C(C)(C)N)CC2)cc1 [(1-(2-amino-2-methylpropanoyl)-4-{[N-(4-ethylphenyl)carbamoyloxy]methyl}(4-piperidyl))-N-[(2-chlorophenyl)methyl]carboxamide],0.67
30,CCc1ccc(NC(=O)OCC2(C(=O)NCc3ccccc3Cl)CCN(C(=O)C(N)CC#N)CC2)cc1 (stereo not drawn) [(1-(2-amino-3-cyanopropanoyl)-4-{[N-(4-ethylphenyl)carbamoyloxy]methyl}(4-piperidyl))-N-[(2-chlorophenyl)methyl]carboxamide],0.797
